Test results published in US11472791B2 (Incyte Corporation, priority 2019, dated 2022).

What follows are molecules tested against CDK2/Cyclin E1 (Homo sapiens (Human), UniProt P24941) (assay: CDK2/Cyclin E1 HTRF enzyme activity assay). Conditions: 1 mM ATP.
Format: biochemical
Procedure: Assays are conducted in white 384-well polystyrene plates in a final reaction volume of 8 μL. […] HTRF signals are read after 1 hour at room temperature on a PHERAstar FS plate reader (BMG Labtech). Data is analyzed with IDBS XLFit and GraphPad Prism 5.0 software using a three or four parameter dose response curve to determine IC50 for each compound.

IC50, < 50 nM:
CN[C@H]1C[C@H](n2cc(-c3nc(NC4CCN(S(=O)(=O)c5ccccn5)CC4)ncc3C(F)(F)F)cn2)C1 [Example 50, 4-(1-((1r,3r)-3-(Methylamino)cyclobutyl)-1H-pyrazol-4-yl)-N-(1-(pyridin-2-ylsulfonyl)piperidin-4-yl)-5-(trifluoromethyl)pyrimidin-2-amine]
CC(C)(O)Cn1cc(-c2nc(NC3CCN(S(C)(=O)=O)CC3)ncc2C(F)(F)F)cn1 [Example 52, 2-Methyl-1-(4-(2-((1-(methylsulfonyl)piperidin-4-yl)amino)-5-(trifluoromethyl)pyrimidin-4-yl)-1H-pyrazol-1-yl)propan-2-ol]
CCS(=O)(=O)N1CCC(Nc2ncc(C(F)(F)F)c(-c3cnn(CC(C)(C)O)c3)n2)CC1 [Example 53, 1-(4-(2-((1-(Ethylsulfonyl)piperidin-4-yl)amino)-5-(trifluoromethyl)pyrimidin-4-yl)-1H-pyrazol-1-yl)-2-methylpropan-2-ol]
CC(C)(O)Cn1cc(-c2nc(NC3CCN(S(=O)(=O)c4ccccn4)CC3)ncc2C#N)cn1 [Example 55, 4-(1-(2-Hydroxy-2-methylpropyl)-1H-pyrazol-4-yl)-2-((1-(pyridin-2-ylsulfonyl)piperidin-4-yl)amino)pyrimidine-5-carbonitrile]
CC(C)(O)Cn1cc(-c2nc(NC3CCN(S(=O)(=O)C4CC4)CC3)ncc2Cl)cn1 [Example 56, 1-(4-(5-Chloro-2-((1-(cyclopropylsulfonyl)piperidin-4-yl)amino)pyrimidin-4-yl)-1H-pyrazol-1-yl)-2-methylpropan-2-ol]
CC(C)(O)Cn1cc(-c2nc(N[C@H]3CCN(S(=O)(=O)C4CC4)C[C@H]3F)ncc2C(F)(F)F)cn1 [Example 57, 1-(4-(2-(((3R,4S)-1-(Cyclopropylsulfonyl)-3-fluoropiperidin-4-yl)amino)-5-(trifluoromethyl)pyrimidin-4-yl)-1H-pyrazol-1-yl)-2-methylpropan-2-ol]
CC(C)(O)Cn1cc(-c2nc(N[C@H]3CCN(S(C)(=O)=O)C[C@H]3F)ncc2C(F)(F)F)cn1 [Example 58, 1-(4-(2-(((3R,4S)-3-Fluoro-1-(methylsulfonyl)piperidin-4-yl)amino)-5-(trifluoromethyl)pyrimidin-4-yl)-1H-pyrazol-1-yl)-2-methylpropan-2-ol]
C[C@@H]1CN(S(=O)(=O)C2CC2)CC[C@@H]1Nc1ncc(C(F)(F)F)c(-c2cnn(CC(C)(C)O)c2)n1 [Example 59, 1-(4-(2-(((3R,4S)-1-(Cyclopropylsulfonyl)-3-methylpiperidin-4-yl)amino)-5-(trifluoromethyl)pyrimidin-4-yl)-1H-pyrazol-1-yl)-2-methylpropan-2-ol]
C[C@@H]1CN(S(=O)(=O)c2cnn(C)c2)CC[C@@H]1Nc1ncc(C(F)(F)F)c(-c2cnn(CC(C)(C)O)c2)n1 [Example 60, 2-Methyl-1-(4-(2-(((3R,4S)-3-methyl-1-((1-methyl-1H-pyrazol-4-yl)sulfonyl)piperidin-4-yl)amino)-5-(trifluoromethyl)pyrimidin-4-yl)-1H-pyrazol-1-yl)propan-2-ol]
C[C@@H]1CN(S(=O)(=O)c2cn(C)cn2)CC[C@@H]1Nc1ncc(C(F)(F)F)c(-c2cnn(CC(C)(C)O)c2)n1 [Example 61, 2-Methyl-1-(4-(2-(((3R,4S)-3-methyl-1-((1-methyl-1H-imidazol-4-yl)sulfonyl)piperidin-4-yl)amino)-5-(trifluoromethyl)pyrimidin-4-yl)-1H-pyrazol-1-yl)propan-2-ol]
C[C@@H]1CN(S(=O)(=O)c2ccccn2)CC[C@@H]1Nc1ncc(C(F)(F)F)c(-c2cnn(CC(C)(C)O)c2)n1 [Example 62, 2-Methyl-1-(4-(2-(((3R,4S)-3-methyl-1-(pyridin-2-ylsulfonyl)piperidin-4-yl)amino)-5-(trifluoromethyl)pyrimidin-4-yl)-1H-pyrazol-1-yl)propan-2-ol]
